# Experimental data reported in patent publication US8283375B2, “2, 6 xylidine derivatives for the treatment of pain” (Krisani Biosciences (P) Ltd., priority 2011, dated 2012).
# Test system: spinal nerve ligation model for neuropathic pain in rats
# Test: Von Frey test for mechanical allodynia in Chung spinal nerve (L5-L6) ligation model
# Type: in vivo, SD rats
# Settings: 150 mg/kg; for analgesic efficacy on mechanical allodynia compared to Vehicle (conclusion in words): b105: 2 and 4.5 hours post-treatment on day 14 and 4.5 hours on day 21, b109: 2 hours post-treatment on days 14 and 21
# From the text: Experimental animals were male SD rats with a starting weight of 230-250 grams. Total number of animals were n=90 for surgery and n=60 after selection. The animals were caged in groups of 3 in a temperature and humidity controlled area. They were maintained on a 12 hr light/dark cycle and had ad libitum access to food and water.
# Neuropathic pain inducement was done by following principles of Chung induced model. The SD rats were anesthetized using ketamine/xylazine sodium. The rats were shaved and placed in prone position for surgery. The L5-L6 spinal nerves were surgically litigated. The rats were returned to their cages for recuperation and recovery under comfortable warm conditions using heat lamps.
# After seven days of surgery a pre selection was performed. Animals that indicate signs of post operative pain were to be selected to proceed. Pain is detected by observing when one or more of the criteria are met as follows. Licking of the operated paw, accompanied by gentle biting or pulling on the nails with the mouth; placing the leg in the air; bearing weight on the side contra-lateral to the nerve injury; deformities of the hind paw and abnormal posture and walking; weakness of the left hind paw. […] However, the animal must be able to move its leg to ensure that the L4 spinal nerve is intact. If the animal cannot move its leg, it was excluded from the study.
# Second level of selection of the rats was done on day 14 after the surgery. Von Frey test was performed on the preselected rats after day 7 on day 14. Using Von Frey methodology, animals with a pain threshold of ≦26 g for the operated leg will be included in the study. After this selection step, the animals were randomly placed into their experimental groups.
# Blank, positive control and test compound: Blank was just the medium used for dissolving other compounds. The positive control was Gabapentin and the test compound was the final compound of formula 1 discussed in the instant disclosure. Three types of experimental groups were formed. Different types of chemicals such as Vehicle and Control were used to determine the efficacy of the chemicals as well comparison of the instant disclosed compound of formula 1, with a positive control was performed. The final compound of the instant disclosure was administered at 100 mg/kg and 150 mg/kg body weight as two different groups. The Gabapentin was administered at 150 mg/kg body weight.
# On day 14 blank compound and final compound will be administered once daily starting on study day 14 through study day 21. Gabapentin, the positive control, will be administered 2 hours prior to pain testing on study days 14 and 21. […]
# Pain Response Evaluation: Pain response was evaluated using Von Frey test for mechanical allodynia. […]
compound,measurement,setting,value
CCN(CCOC(=O)CCCCC1CCSS1)CC(=O)Nc1c(C)cccc1C (stereo not shown) [KRB-5b],duration of analgesic activity / activity compared with gabapentin (in words),,prolonged analgesic activity compared to gabapentin
same,analgesic efficacy on mechanical allodynia compared to Vehicle (conclusion in words),,effective as a pain analgesic item
same,analgesic efficacy on mechanical allodynia compared to Vehicle (conclusion in words),listed as compound of formula 1,effective in treating the spinal nerve ligation model for neuropathic pain in rats
"NCC1(CC(=O)O)CCCCC1 [Gabapentin, reference compound]",duration of analgesic activity / activity compared with gabapentin (in words),,active only at 2 hours post dosing
